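Method: 48-hour compound exposure of cells in 96-well plates, five concentrations, linear interpolation of endpoints. At the GI50, growth is halved.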 Active and inactive are the calls of the source. Rule as the data show it: active = GI50 up to about 1.1 µM and inactive = higher.
Experiments:
Assay in all cases: NCI-60 cell line screen, 48 h
[1] = test system: TK-10
[2] = test system: HOP-92
[3] = test system: HCC 2998
[4] = test system: SF-539
[5] = test system: Malme-3M
[6] = test system: EKVX
[7] = test system: NCI-H522
[8] = test system: SF-295
[9] = test system: A498
[10] = test system: NCI/ADR-RES
[11] = test system: OVCAR-4
[12] = test system: NCI-H226
[13] = test system: SK-OV-3
[14] = test system: HL-60
[15] = test system: RXF 393
[16] = test system: ACHN
[17] = test system: HOP-62
[18] = test system: M19-MEL
[19] = test system: DMS-114
[20] = test system: SNB-78

## CSC1=C(SC)C(=O)c2cn(C)c(=O)cc2C1=O
[1]
  GI50: 2.33 µM (inactive)
[2]
  GI50: 0.904 µM (active)
[3]
  GI50: 17.1 µM (inactive)
[4]
  GI50: 9.82 µM (inactive)
[5]
  GI50: 2.24 µM (inactive)
[6]
  GI50: 18.3 µM (inactive)
[7]
  GI50: 0.853 µM (active)
[8]
  GI50: 13 µM (inactive)
[9]
  GI50: 15.1 µM (inactive)
[10]
  GI50: > 19.7 µM (inactive)
[11]
  GI50: 1.97 µM (inactive)
[12]
  GI50: 19.9 µM (inactive)
[13]
  GI50: 17.5 µM (inactive)
[14]
  GI50: 0.0731 µM (active)
[15]
  GI50: 1.89 µM (inactive)
[16]
  GI50: 1.81 µM (inactive)
[17]
  GI50: 9.38 µM (inactive)

## CCOC(=O)CN1CCS/C1=N/C#N
[18]
  GI50: > 100 µM (inactive)
[19]
  GI50: > 100 µM (inactive)
[2]
  GI50: > 60 µM (inactive)
[3]
  GI50: > 100 µM (inactive)
[4]
  GI50: > 100 µM (inactive)
[5]
  GI50: > 100 µM (inactive)
[6]
  GI50: > 100 µM (inactive)
[7]
  GI50: > 100 µM (inactive)
[9]
  GI50: > 100 µM (inactive)
[10]
  GI50: > 100 µM (inactive)
[11]
  GI50: > 100 µM (inactive)
[12]
  GI50: > 100 µM (inactive)
[13]
  GI50: > 100 µM (inactive)
[14]
  GI50: > 100 µM (inactive)
[15]
  GI50: > 100 µM (inactive)
[20]
  GI50: > 100 µM (inactive)
[17]
  GI50: > 100 µM (inactive)

## O=NN(CCCl)C(=O)Nc1ccc(Cl)c(Cl)c1
[18]
  GI50: 69.5 µM (inactive)
[19]
  GI50: 6.67 µM (inactive)
[2]
  GI50: > 77.8 µM (inactive)
[3]
  GI50: > 60.7 µM (inactive)
[4]
  GI50: > 91.2 µM (inactive)
[5]
  GI50: > 100 µM (inactive)
[6]
  GI50: 46.9 µM (inactive)
[7]
  GI50: 28.3 µM (inactive)
[8]
  GI50: 48.5 µM (inactive)
[9]
  GI50: > 83.8 µM (inactive)
[10]
  GI50: 48.4 µM (inactive)
[11]
  GI50: 61.1 µM (inactive)
[12]
  GI50: 46.6 µM (inactive)
[13]
  GI50: > 94.8 µM (inactive)
[14]
  GI50: > 100 µM (inactive)
[15]
  GI50: > 100 µM (inactive)
[20]
  GI50: > 56.9 µM (inactive)
[17]
  GI50: 0.546 µM (active)

## C1CNCCNCCNCCN1
[1]
  GI50: > 100 µM (inactive)
[18]
  GI50: > 100 µM (inactive)
[19]
  GI50: > 100 µM (inactive)
[3]
  GI50: 64.3 µM (inactive)
[4]
  GI50: > 100 µM (inactive)
[5]
  GI50: > 100 µM (inactive)
[6]
  GI50: > 100 µM (inactive)
[7]
  GI50: > 100 µM (inactive)
[8]
  GI50: > 100 µM (inactive)
[9]
  GI50: > 100 µM (inactive)
[12]
  GI50: > 100 µM (inactive)
[13]
  GI50: > 100 µM (inactive)
[14]
  GI50: 62.7 µM (inactive)
[15]
  GI50: > 100 µM (inactive)
[16]
  GI50: > 100 µM (inactive)
[20]
  GI50: > 100 µM (inactive)
[17]
  GI50: > 100 µM (inactive)

## CC(C)(C)[Si](C)(C)OCCCC#CCO
[1]
  GI50: > 100 µM (inactive)
[19]
  GI50: > 100 µM (inactive)
[3]
  GI50: > 100 µM (inactive)
[4]
  GI50: > 100 µM (inactive)
[5]
  GI50: > 100 µM (inactive)
[6]
  GI50: > 100 µM (inactive)
[7]
  GI50: > 100 µM (inactive)
[8]
  GI50: > 100 µM (inactive)
[9]
  GI50: > 100 µM (inactive)
[11]
  GI50: > 100 µM (inactive)
[13]
  GI50: > 100 µM (inactive)
[14]
  GI50: 25.8 µM (inactive)
[15]
  GI50: > 100 µM (inactive)
[16]
  GI50: > 100 µM (inactive)
[20]
  GI50: > 100 µM (inactive)

## O=C1OC2CC=CC1C2 (stereo not given)
[18]
  GI50: > 100 µM (inactive)
[19]
  GI50: > 100 µM (inactive)
[2]
  GI50: > 100 µM (inactive)
[3]
  GI50: > 100 µM (inactive)
[4]
  GI50: > 100 µM (inactive)
[5]
  GI50: > 100 µM (inactive)
[6]
  GI50: > 100 µM (inactive)
[7]
  GI50: > 100 µM (inactive)
[8]
  GI50: > 100 µM (inactive)
[9]
  GI50: > 100 µM (inactive)
[10]
  GI50: > 100 µM (inactive)
[11]
  GI50: > 100 µM (inactive)
[12]
  GI50: > 100 µM (inactive)
[13]
  GI50: > 100 µM (inactive)
[14]
  GI50: > 100 µM (inactive)
[15]
  GI50: > 100 µM (inactive)
[20]
  GI50: > 100 µM (inactive)
[17]
  GI50: > 100 µM (inactive)

## CC1=CC(O)C(O)C2(C)C1CC1OC(=O)C(O)C3C(C)C(O)C4(O)OCC13C42 (stereo not given)
[18]
  GI50: 56 µM (inactive)
[19]
  GI50: 35.4 µM (inactive)
[2]
  GI50: 6.03 µM (inactive)
[3]
  GI50: 16.8 µM (inactive)
[4]
  GI50: 39.2 µM (inactive)
[5]
  GI50: 97.7 µM (inactive)
[6]
  GI50: 30.9 µM (inactive)
[7]
  GI50: 50.5 µM (inactive)
[8]
  GI50: 28.8 µM (inactive)
[9]
  GI50: 17.9 µM (inactive)
[10]
  GI50: 242 µM (inactive)
[11]
  GI50: 40.9 µM (inactive)
[12]
  GI50: 41.3 µM (inactive)
[13]
  GI50: 49.9 µM (inactive)
[14]
  GI50: 33 µM (inactive)
[15]
  GI50: 8.81 µM (inactive)
[20]
  GI50: 39.4 µM (inactive)
[17]
  GI50: 65.3 µM (inactive)

## COC1CCC(CO)OO1 (stereo not given)
[18]
  GI50: 60.4 µM (inactive)
[19]
  GI50: 15.3 µM (inactive)
[2]
  GI50: 28.6 µM (inactive)
[4]
  GI50: 27.7 µM (inactive)
[5]
  GI50: 59.7 µM (inactive)
[7]
  GI50: 12.9 µM (inactive)
[8]
  GI50: 14.1 µM (inactive)
[9]
  GI50: 13.1 µM (inactive)
[11]
  GI50: 45.9 µM (inactive)
[13]
  GI50: > 100 µM (inactive)
[14]
  GI50: 18.4 µM (inactive)
[15]
  GI50: 33.7 µM (inactive)
[16]
  GI50: 38.2 µM (inactive)
[20]
  GI50: 15.9 µM (inactive)
[17]
  GI50: 9.64 µM (inactive)

Source: ChEMBL document CHEMBL1201862, “PubChem BioAssay data set” (2004)
